In patent US7968587B2, “Tetrahydrocyclopenta[b]indole compounds as androgen receptor modulators” (priority 2006, dated 2011):

System: castrated (GDX) male Wistar rats
Test: In vivo model of efficacy and selectivity (castrated rat; LA, SV wet weight, PALP activity)
Conditions: po, two weeks; for LA weight % Efficacy versus control (GDX) (ANOVA, p < 0.05): levator ani wet weight normalized to body weight; for PALP % Efficacy versus control (GDX) (ANOVA, p < 0.05): periosteal alkaline phosphatase activity, tibia; for SV weight % Efficacy verses control (sham) (ANOVA, p < 0.05): seminal vesicle wet weight normalized to body weight
Procedure: Male Wistar rats (12 weeks old) are castrated (gonadectomized or “GDX”) according to approved procedures (Charles River Labs) and allowed to waste for eight - 10 weeks. Age-matched sham-operated mice are also prepared. (Sham-operated mice are animals that have been exposed to the same surgical procedures as castrated animals except their testes are not removed.) Animals are housed in a temperature-controlled room (24° C.) with a reversed 12 hour light/dark cycle (dark 10:00/22:00) and water and food are available ad libitum.
Test compounds are administered to the animals using conventional vehicles. For example, 1% sodium carboxymethylcellulose (CMC)+0.25% Tween 80 in sterile H2O can be used for oral administration and 6% ethyl-alcohol (EtOH)+94% cyclodexitrane (CDX) can be used for subcutaneous injections. Sham operated rats treated with vehicle alone are used as a treatment positive controls whereas castrated rats treated only with vehicle are used as treatment negative control.
Test animals are dosed over a two week timeframe, orally or subcutaneously, with, for example, 0.3, 1, 3, 10 or 30 mg/kg/day of a compound of the present invention. After the two-week treatment, as an indicator of activity, the wet weight of the Levator Ani (LA) muscle in the test group is determined and compared to the wet weight of the Levator Ani from the castrated, vehicle-only control group. The wet weights of the muscle obtained in both the test group and the vehicle-only group are normalized relative to total body weight. As an indicator of tissue selective activity, the wet weight of the seminal vesicle (SV) from test animals is similarly compared to the wet weight of the seminal vesicles from the sham, vehicle-only group. Again, the wet weights of the vesicles obtained from both the test group and the vehicle-only group are normalized relative to total body weight.
In addition to the Levator Ani wet weight, the left tibia of rats are isolated during necropsy and after uncapping of the epiphysis, the soft tissue surrounding the bone is carefully removed. This sample is then placed in a solution containing 0.2% collagenase in Tris Buffer (pH 7.5). The resulting enzymatic excision of the outer periosteal layer is subjected immediately to an assay to determine alkaline phosphatase activity, an indicator of osteoblast/bone anabolic activity. Briefly, 30 μL of sample is placed in an epitube containing 200 μL of para-nitrophenyl phosphate (PNPP) substrate buffer (Pierce Cat # 37621). Purified alkaline phosphatase (Sigma Cat. # P4252) is used to make a standard curve, and the samples are read in a plate reader at Abs405 to determine periosteal alkaline phosphatase (PALP) activity. The results obtained from both the test group and the vehicle only group may be normalized relative to total body weight.
Percent Efficacy (% Eff.) values may be determined as follows: % Eff.=((Wet weight of LA or SV or PALP activity in test animal/test animal total body weight)/(Wet weight of LA or SV or PALP activity in control animal/control animal total body weight))×100.

CN(C)S(=O)(=O)N[C@@H]1Cc2c(n(Cc3cccc(F)n3)c3ccc(C#N)cc23)C1 [Example 74, (R)-N′-[7-Cyano-4-(6-fluoro-pyridin-2-ylmethyl)-1,2,3,4-tetrahydro-cyclopenta[b]indol-2-yl]-N,N-dimethylsulfamide]
LA weight % Efficacy versus control (GDX) (ANOVA, p < 0.05) (3 mg/Kg/d): 134%
PALP % Efficacy versus control (GDX) (ANOVA, p < 0.05) (3 mg/Kg/d): 95%
SV weight % Efficacy verses control (sham) (ANOVA, p < 0.05) (3 mg/Kg/d): 6%
LA weight % Efficacy versus control (GDX) (ANOVA, p < 0.05) (10 mg/Kg/d): 195%
PALP % Efficacy versus control (GDX) (ANOVA, p < 0.05) (10 mg/Kg/d): 116%
SV weight % Efficacy verses control (sham) (ANOVA, p < 0.05) (10 mg/Kg/d): 8%
LA weight % Efficacy versus control (GDX) (ANOVA, p < 0.05) (30 mg/Kg/d): 186%
PALP % Efficacy versus control (GDX) (ANOVA, p < 0.05) (30 mg/Kg/d): 107%
SV weight % Efficacy verses control (sham) (ANOVA, p < 0.05) (30 mg/Kg/d): 14%
